Measured values reported in US20220362186A1, “Application of p-Hydroxyphenylpropionic Acid to Prepare Medicine for Preventing and Treating Respiratory Tract Infection” (SUN YAT-SEN UNIVERSITY, priority 2020, published 2022).
≈ marks a conversion by molar mass, not a printed value. Where two headings read alike, the source gives them in different places. Marks after values point to notes of the source that are not given here.

Assays:
Staphylococcus aureus = test: Antibacterial experiment in vitro, broth microdilution (CLSI); assay type: cell-based; settings: 20-hour cultivation at 37° C.
Klebsiella pneumoniae = test: as above; assay type: cell-based; settings: 20 h, 20-hour cultivation at 37° C.
chronic smoked mice = test: Chronic lung injury caused by smoking (chronic smoked mice); assay type: in vivo, Balb/c mice; settings: for Cchord / FEV50/FVC: 8 weeks smoking; for Lymphocyte count of alveolar lavage fluid / Monocyte count of alveolar lavage fluid / Neutrophil count of alveolar lavage fluid: BALF; for IL-1β in lung tissue / IL-6 in lung tissue / IL-18 in lung tissue / LTB4 in lung tissue / TNF-α in lung tissue: lung tissue homogenate, ELISA
[1] = tested on: lipopolysaccharide-induced mouse acute lung injury model; test: Lipopolysaccharide-induced mouse acute lung injury model; assay type: in vivo, Balb/c mice; settings: for LDH Activity in Lung / MPO Activity in Lung / MPO Content in Lung / Lung Tissue Dry-to-wet Ratio: 24 h after LPS; for Lung Tissue Dry-to-wet Ratio: mean ± SD
Method: Experimental method: the mice were acclimatized for 72 hours in an SPF animal room with constant temperature and constant humidity after purchase. The mice were randomly divided into four groups, that is, a blank control group (n=10), a model control group (n=10), a positive control medicine naringin group (n=11) and a p-hydroxyphenylpropionic acid group (n=11). The naringin group (180 mg/kg) and the p-hydroxyphenylpropionic acid group (51.6 mg/kg) were continuously subjected to intragastric administration once a day, for three days respectively; and the blank control group and the model control group were administered intragastrically with equivoluminal normal saline. The mice were anesthetized through intraperitoneal injection of 0.5 ml of pentobarbital sodium (65 mg/kg) three hours after the last intragastric administration. For the mice in the model group, the naringin group and the p-hydroxyphenylpropionic acid group, 50 μl of lipopolysaccharide 055:B5 solution (0.8 mg/ml) was slowly instilled into the nasal cavities of the mice until being completely absorbed, and a mouse acute lung injury model was established. The mice in the blank control group received nasal drops of the equivoluminal normal saline. The mice were killed by a cervical vertebra dislocation method 24 hours after the lipopolysaccharide modeling was performed, and the whole lung tissue of the mice was collected and put into a sterile centrifugal tube and was stored in liquid nitrogen within 30 seconds. After the lung tissue stored in the liquid nitrogen was placed at room temperature for 30 minutes, a wet weight was weighed. A drying vessel was dried at 80° C. for 24 hours and then was taken out and placed at room temperature for weighing. Then, the drying vessel was taken out after 1 hour of constant weight at 80° C. and was placed at room temperature for weighing. After the weight of the drying vessel was constant, the lung tissue was placed in the drying vessel, was dried at 80° C. for 48 hours and taken out, and was placed at room temperature for weighing. Then, the drying vessel was taken out after 1 hour of constant weight at 80° C. and was placed at room temperature for weighing. […] [formula] [formula] 24 hours after the lipopolysaccharide modeling was performed, the mice were killed and about 400 mg of lung tissue was collected. 1 ml of PBS-10% Triton was added into the lung tissue to serve as a lysis solution for homogenization. After the protein concentration was measured by a BCA protein concentration kit, the sample loading quantity was adjusted to 50 μg of total protein and 100 μl of total volume, and the content of myeloperoxidase (MPO), the activity of the MPO and the activity of lactic dehydrogenase (LDH) in the lung tissue sample were measured by kits. The data in the table are presented as mean±standard deviation, and analysis of difference among multiple groups is realized by a one-way analysis of variance Beforroni method and SPSS 22.0 software.

[2] = high-dose 60 mg/kg intragastric
[3] = 51.6 mg/kg intragastric once a day for three days
[4] = 180 mg/kg intragastric once a day for three days

O=C(O)CCc1ccc(O)cc1 [HPPA, p-Hydroxyphenylpropionic acid]
MIC (Staphylococcus aureus; Staphylococcus aureus, strain S4, read-out: MIC): 64 µg/mL (≈ 385 µM) | MIC (Staphylococcus aureus; strain S1): 64 µg/mL (≈ 385 µM) | MIC (Staphylococcus aureus; strain S2): 64 µg/mL (≈ 385 µM) | MIC (Staphylococcus aureus; strain S3): 64 µg/mL (≈ 385 µM) | MIC (Staphylococcus aureus; strain S5): 64 µg/mL (≈ 385 µM) | MIC (Staphylococcus aureus; strain S6): 64 µg/mL (≈ 385 µM) | MIC (Staphylococcus aureus; strain S7): 64 µg/mL (≈ 385 µM) | MIC (Staphylococcus aureus; strain S8): 64 µg/mL (≈ 385 µM) | MIC (Staphylococcus aureus; strain S9): 64 µg/mL (≈ 385 µM) | MIC (Staphylococcus aureus; strain S10): 64 µg/mL (≈ 385 µM) | MIC (Klebsiella pneumoniae; strain K11): 64 µg/mL (≈ 385 µM) | MIC (Klebsiella pneumoniae; Klebsiella pneumoniae, strain K1): 128 µg/mL (≈ 770 µM) | MIC (Klebsiella pneumoniae; Klebsiella pneumoniae, strain K2): 128 µg/mL (≈ 770 µM) | MIC (Klebsiella pneumoniae; Klebsiella pneumoniae, strain K3): 128 µg/mL (≈ 770 µM) | MIC (Klebsiella pneumoniae; Klebsiella pneumoniae, strain K4): 128 µg/mL (≈ 770 µM) | MIC (Klebsiella pneumoniae; Klebsiella pneumoniae, strain K5): 128 µg/mL (≈ 770 µM) | MIC (Klebsiella pneumoniae; Klebsiella pneumoniae, strain K6): 64 µg/mL (≈ 385 µM) | MIC (Klebsiella pneumoniae; Klebsiella pneumoniae, strain K7): 128 µg/mL (≈ 770 µM) | MIC (Klebsiella pneumoniae; Klebsiella pneumoniae, strain K8): 64 µg/mL (≈ 385 µM) | MIC (Klebsiella pneumoniae; Klebsiella pneumoniae, strain K9): 64 µg/mL (≈ 385 µM) | MIC (Klebsiella pneumoniae; Klebsiella pneumoniae, strain K10): 64 µg/mL (≈ 385 µM) | MIC (Klebsiella pneumoniae; Klebsiella pneumoniae, strain K12): 64 µg/mL (≈ 385 µM) | Cchord (chronic smoked mice; [2]): 0.041 ± 0.0029 mL/cm H2O | FEV50/FVC (chronic smoked mice; [2]): 0.333 ± 0.040 | Lymphocyte count of alveolar lavage fluid (chronic smoked mice; [2]): 1.014 ± 0.107# 10^5/mL | Monocyte count of alveolar lavage fluid (chronic smoked mice; [2]): 3.100 ± 0.554## 10^5/mL | Neutrophil count of alveolar lavage fluid (chronic smoked mice; [2]): 0.743 ± 0.190## 10^5/mL | IL-1β in lung tissue (chronic smoked mice; [2]): 35.27 ± 6.509 pg/mL | IL-6 in lung tissue (chronic smoked mice; [2]): 1027 ± 90.56 pg/mL | IL-18 in lung tissue (chronic smoked mice; [2]): 157.4 ± 9.098 pg/mL | LTB4 in lung tissue (chronic smoked mice; [2]): 7241 ± 1024 pg/mL | TNF-α in lung tissue (chronic smoked mice; [2]): 92.45 ± 13.24 pg/mL | Cchord (chronic smoked mice; low-dose 15 mg/kg intragastric): 0.0448 ± 0.0041 mL/cm H2O | FEV50/FVC (chronic smoked mice; low-dose 15 mg/kg intragastric): 0.360 ± 0.039 | Lymphocyte count of alveolar lavage fluid (chronic smoked mice; low-dose 15 mg/kg intragastric): 1.317 ± 0.117 10^5/mL | Monocyte count of alveolar lavage fluid (chronic smoked mice; low-dose 15 mg/kg intragastric): 3.871 ± 0.544 10^5/mL | Neutrophil count of alveolar lavage fluid (chronic smoked mice; low-dose 15 mg/kg intragastric): 1.129 ± 0.287 10^5/mL | IL-1β in lung tissue (chronic smoked mice; low-dose 15 mg/kg intragastric): 47.18 ± 6.822 pg/mL | IL-6 in lung tissue (chronic smoked mice; low-dose 15 mg/kg intragastric): 1483 ± 300.3 pg/mL | IL-18 in lung tissue (chronic smoked mice; low-dose 15 mg/kg intragastric): 180.1 ± 6.667 pg/mL | LTB4 in lung tissue (chronic smoked mice; low-dose 15 mg/kg intragastric): 8344 ± 1356#^ pg/mL | TNF-α in lung tissue (chronic smoked mice; low-dose 15 mg/kg intragastric): 126.3 ± 10.34 pg/mL | LDH Activity in Lung [1, 3]: 271.19 ± 27.70 ## units/gprot | MPO Activity in Lung [1, 3]: 1.756 ± 0.190 ## units/gprot | MPO Content in Lung [1, 3]: 324.09 ± 36.33 ## pg/ml | Lung Tissue Dry-to-wet Ratio [1, 3]: 4.90 ± 0.52

C[C@@H]1O[C@@H](O[C@H]2[C@H](Oc3cc(O)c4c(c3)O[C@H](c3ccc(O)cc3)CC4=O)O[C@H](CO)[C@@H](O)[C@@H]2O)[C@H](O)[C@H](O)[C@H]1O [Naringin, naringin]
LDH Activity in Lung [1, 4]: 310.93 ± 27.77 units/gprot | MPO Activity in Lung [1, 4]: 1.913 ± 0.262 units/gprot | MPO Content in Lung [1, 4]: 415.85 ± 52.15 pg/mL | Lung Tissue Dry-to-wet Ratio [1, 4]: 5.15 ± 0.47 | Effect on lung inflammation, pulmonary edema, neutrophil infiltration and cell necrosis in ALI (in words) ([1]; 180 mg/kg intragastric, P<0.01 vs model control): effectively inhibit the progress of lung inflammation in the ALI and alleviate pulmonary edema, local neutrophil infiltration and cell necrosis

O=C(Nc1c(Cl)cncc1Cl)c1ccc(OC(F)F)c(OCC2CC2)c1 [Roflumilast, roflumilast, reference compound]
Cchord (chronic smoked mice; 5 mg/kg intragastric): 0.042 ± 0.0054 mL/cm H2O | FEV50/FVC (chronic smoked mice; 5 mg/kg intragastric): 0.367 ± 0.042 | Lymphocyte count of alveolar lavage fluid (chronic smoked mice; 5 mg/kg intragastric): 0.914 ± 0.227## 10^5/mL | Monocyte count of alveolar lavage fluid (chronic smoked mice; 5 mg/kg intragastric): 3.014 ± 0.319## 10^5/mL | Neutrophil count of alveolar lavage fluid (chronic smoked mice; 5 mg/kg intragastric): 0.729 ± 0.180## 10^5/mL | IL-1β in lung tissue (chronic smoked mice; 5 mg/kg intragastric): 34.02 ± 7.098 pg/mL | IL-6 in lung tissue (chronic smoked mice; 5 mg/kg intragastric): 963.2 ± 188.8 pg/mL | IL-18 in lung tissue (chronic smoked mice; 5 mg/kg intragastric): 143.4 ± 18.34 pg/mL | LTB4 in lung tissue (chronic smoked mice; 5 mg/kg intragastric): 6809 ± 670.8 pg/mL | TNF-α in lung tissue (chronic smoked mice; 5 mg/kg intragastric): 102.4 ± 17.34 pg/mL
